Values of other authors in patent publication US8211035B2, “System and method for monitoring health using exhaled breath” (University of Florida Research Foundation, Inc., priority 2002, dated 2012).

## CC(C)c1cccc(C(C)C)c1O [propofol, 2,6-diisopropylphenol]
  dose recovered in urine as hydroxylated and conjugated metabolites: 88%
